Experiments:
[1] = tested on: ZR-75-1 and BT474 breast cancer cells; experiment: Cell counting assay of CPT sensitivity; assay type: cell-based; conditions: ZR-75-1 vs BT474 cells; one hr acute exposure
Protocol: Cell survival assays. MTT assay: Cells (3000 cells/well) are plated in 96-well microtiter plates and incubated at 37° C. in a CO2 incubator. For determination of IC50, cells are treated with varying concentrations of CPT for four days. Cells are then incubated with MTT (3-(4,5-dimethylthiazol-2-yl)-2,5-diphenyltetrazolium bromide) for 4 hrs at 37° C. The dye produced by viable cells is dissolved in DMSO and the optical density measured at 570 nm. All assays are performed at least twice in six replicate wells. Clonogenic assay: Cells (100-500 cells/plate) are plated in 6-well tissue culture plates and incubated at 37° C. in a CO2 incubator. Cells are then treated with various concentrations of CPT for 1 hr. Following CPT treatment, cells are washed free of CPT and placed in fresh medium. After 10 days, survived colonies are stained with Methylene blue and counted using the Minicount machine. Cell counting assay: Logarithmically growing cells are treated with various concentrations of CPT for 1 hr. CPT is then removed by washing the plates with CPT-free medium four times. […] Cell survival is determined by counting cells using the Coulter counter after trypsinization.
Breast cancer ZR-75-1 and BT474 cells are treated with CPT for 1 hr followed by incubation in CPT-free medium for 3 days. Cell survival is determined by cell counting using a Coulter counter as described in Materials and Methods.

TOP1 = target: T1, TOP1 (Homo sapiens, UniProt P11387); experiment: Immunoblotting assay for CPT-induced TOP1 degradation; assay type: cell-based; conditions: CPT 25 μM
T1 construct: endogenous in cells; host or cells: ZR-75-1 and its shRNA clones
T1 sequence (P11387 1-765): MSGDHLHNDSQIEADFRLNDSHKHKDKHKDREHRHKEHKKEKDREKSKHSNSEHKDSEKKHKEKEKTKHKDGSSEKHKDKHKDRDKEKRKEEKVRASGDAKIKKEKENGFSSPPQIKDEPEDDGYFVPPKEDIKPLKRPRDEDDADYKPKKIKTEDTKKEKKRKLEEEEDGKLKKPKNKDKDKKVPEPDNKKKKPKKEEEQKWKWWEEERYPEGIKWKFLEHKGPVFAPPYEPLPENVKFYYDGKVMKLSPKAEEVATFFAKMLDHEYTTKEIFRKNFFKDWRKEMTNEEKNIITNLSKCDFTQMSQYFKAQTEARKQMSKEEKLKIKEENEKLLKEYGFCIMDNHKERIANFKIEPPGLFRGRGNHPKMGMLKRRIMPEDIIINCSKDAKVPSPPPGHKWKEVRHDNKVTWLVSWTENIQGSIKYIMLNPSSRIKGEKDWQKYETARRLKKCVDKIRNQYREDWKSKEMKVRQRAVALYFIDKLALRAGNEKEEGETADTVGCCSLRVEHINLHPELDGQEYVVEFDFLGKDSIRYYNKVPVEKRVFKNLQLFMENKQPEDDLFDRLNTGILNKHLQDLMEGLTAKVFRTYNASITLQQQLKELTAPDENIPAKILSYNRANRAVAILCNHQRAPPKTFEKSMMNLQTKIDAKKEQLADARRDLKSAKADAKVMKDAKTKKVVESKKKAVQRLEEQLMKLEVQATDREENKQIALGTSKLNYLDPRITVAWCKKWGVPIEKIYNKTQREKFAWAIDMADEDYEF
Protocol: Band depletion assay for TOP1 cleavage complexes. Cells (106/sample) are treated with CPT (25 μM in 1% DMSO) for various times at 37° C. Cells are then lysed with 0.2 N NaOH containing 2 mM EDTA as described previously (14). Cell lysates are then neutralized with 1/10 volume of a solution containing 10% NP-40, 1 M Tris (pH 7.4), 0.1 M MgCl2, 0.1 M CaCl2, 10 mM dithiothreitol, 1 mM EGTA, and a mixture of peptide protease inhibitors (100 μg/ml each of leupeptin, pepstatin, and aprotinin), followed by the addition of another 1/10 volume of 2 N HCl. Reactions are terminated by the addition of SDS-PAGE sample buffer. Immunoblotting analysis of cell lysates is carried out using anti-Scl-70 antibody from scleroderma patients as described above.
Immunoblotting assay for CPT-induced TOP1 degradation. Cells are prepared for immunoblotting as described above with two modifications. First, cells are incubated in CPT-free medium for 30 min prior to lysis (to reverse TOP1 cleavage complexes and to de-conjugate TOP1-ubiquitin and TOP1-UBL conjugates). Second, neutralized cell lysates are incubated with Staphylococcus aureus nuclease S7 (60 U/reaction) for 20 min on ice (to release TOP1 from residual TOP1-DNA covalent complexes) prior to termination with SDS-PAGE sample buffer.
Example No. 3. […] Panel A, Reduced ISG15 expression in ZR-75-1 cells expressing ISG15 shRNA. Cell lysates of ZR-75-1 clones expressing either control shRNA (lane #1) or ISG15 shRNA (lanes #2) are analyzed by 15% SDS-PAGE. Western blotting analysis is performed using anti-ISG15 antisera (upper panel). […] Panel B, CPT sensitivity. Clonogenic survival assay is carried out as described in Materials and Methods. Colonogenic survival curves of a ZR-75-1 clone expressing control shRNA and ISG15 shRNA after CPT treatment is shown. Mean±SD values from at least two experiments are presented. Panel C, CPT-induced TOP1 down-regulation. ZR-75-1 cells stably transfected with control shRNA (lanes 1-4) or ISG15 shRNA (lanes #5-8) (10^6 cells/sample) are treated with either DMSO (lanes #1 and 5) or CPT (25 μM in 1% DMSO) (lanes #2-4 and 6-8) for various times at 37° C. Subsequently, cells are placed in fresh CPT-free media for 30 min to reverse cleavable complexes. Cell lysis and immunoblotting using anti-hTOP1 antisera are carried out as described in FIG. 1 (upper panels).
Example No. 4. […] Panel A, the reduced UbcH8 protein level in ZR-75-1 cells expressing UbcH8 shRNA. Cell lysates prepared from ZR-75-1 clones expressing either control shRNA (lane #1) or UbcH8 shRNA (lanes #2 and 3, from two independent clones), and the purified UbcH8 protein (lane #4) are analyzed by 15% SDS-PAGE. Western blotting analysis is performed using anti-UbcH8 antibody (Abeam). […] Panel B, UbcH8 shRNA decreases ISG15 conjugation in ZR-75-1 cells. Cell lysates prepared from ZR-75-1 clones expressing either control shRNA (lane #1) or UbcH8 shRNA (lanes #2 and 3, two independent clones), and the purified UbcH8 protein (lane #4) are analyzed by 15% SDS-PAGE. Western blotting analysis is performed using anti-ISG15 antibody. The non-specific bands are due to the crossreactivity of the ISG15 antibody to bovine serum albumin. Panel C, knocking down UbcH8 confers CPT resistance. ZR-75-1 clones expressing control shRNA and UbcH8 shRNA (two independent clones) are treated with CPT and cell survival is measured as described in Example 3. Panels D-F, CPT-induced TOP1 down-regulation is […] in ZR-75-1 cells expressing UbcH8 shRNA. Clonal cells of ZR-75-1 expressing control (panel D) or UbcH8 shRNA (panels E and F, representing two independent clones) (10^6/sample) are treated with either DMSO (lanes #1, 5, and 9) or CPT (25 μM in 1% DMSO) (lanes #2-4, 6-8, and 10-12) for various times at 37° C. Cells are then placed in fresh CPT-free media for 30 min to reverse cleavage complexes. Cell lysis and immunoblotting using anti-hTOP1 antibody are carried out as described in Example 1.

Structure (SMILES): CC[C@@]1(O)C(=O)OCc2c1cc1n(c2=O)Cc2cc3ccccc3nc2-1 [CPT, camptothecin]
- fold greater sensitivity to CPT based on IC50 values [1]: greater than 50 fold
- TOP1 down-regulation (TOP1; MCF7/RC cells): increased
- TOP1 down-regulation (TOP1; ZR/ISG15-shRNA1 cells, 2 hrs): about 50%
- degradation of TOP1 (TOP1; ZR/UbcH8-shRNA1 cells, 2 hrs): about 50%
- degradation of TOP1 (TOP1; ZR/UbcH8-shRNA2 cells, 2 hrs): about 50%
- TOP1 down-regulation (TOP1; ZR/control-shRNA1 cells): minimal
- TOP1 down-regulation (TOP1; ZR/control-shRNA2 cells): minimal
- TOP1 down-regulation (TOP1; parental MCF7 cells): minimal
